“Also recorded” adds a separate entry of the source.
Tests used:
[1] = test system: normal human B cells; assay: Western blot of XIAP and cleaved PARP without sCD40L stimulation; format: cell-based; settings: 10 μg/ml antibody, no sCD40L, 0 to 16 hours
Experimental: Cells were collected at 0, 4, 14, and 16 hours. XIAP, cleaved PARP, and β-actin controls were detected in cell lysates by Western blot.

[2] = test system: normal B cells; assay: CD40L-induced cytokine secretion, Meso Scale Discovery multi-array; format: cell-based, human; settings: 24 hours; for % inhibition of CD40L-induced MCP-1 secretion / % inhibition of CD40L-induced MIP-1β secretion / % inhibition of CD40L-induced hIL-6 secretion / % inhibition of CD40L-induced hIL-8 secretion / % inhibition of CD40L-induced hIL-10 secretion / % inhibition of CD40L-induced hTNF-α secretion: normal B cells
Experimental: (§1) Cells (1×10^5 cells per well) were cultured in a 96-well plate in the presence or absence of CD40L ([…], formaldehyde fixed CHO cells, 2×10^5 per well). […] Production of hIL-6, hIL-8, hIL-10, hTNF-α; hGM-CSF, hIL-1b, hIL-12p70, MCP-1, and MIP-1β beta was measured by Meso Scale Discovery® multi-array system (Meso Scale Discovery, Gaithersburg, Md.).

[3] = test system: monocytes; assay: as above; format: cell-based, human; settings: 24 hours
Experimental: as §1

[4] = molecular target: soluble CD40 (Homo sapiens, UniProt P25942); assay: ELISA-type assay, binding to soluble CD40; settings: ELISA-type assays
Source text: 2, 2000, and PCT International Application No. PCT/US01/30857, also titled “Human Anti-CD40 Antibodies,” filed Oct. 2, 2001, both of which are herein incorporated by reference in their entirety.

[5] = test system: cancer cells from NHL and CLL patients; assay: In vitro CD40 ligand-mediated proliferation of patient cancer cells; format: cell-based, human
Source text: 4, 2003, Nov. 26, 2003, and Apr. 27, 2004, and assigned U.S. Patent Application Nos. 60/517,337 , 60/525,579, and 60/565,710, respectively, and International Patent Application No. PCT/US2004/037152, also entitled “Antagonist Anti-CD40 Monoclonal Antibodies and Methods for Their Use,” filed Nov. 4, 2004; the contents of each of which are herein incorporated by reference in their entirety.

Chain of soluble CD40 (P25942 21-193 limits assumed): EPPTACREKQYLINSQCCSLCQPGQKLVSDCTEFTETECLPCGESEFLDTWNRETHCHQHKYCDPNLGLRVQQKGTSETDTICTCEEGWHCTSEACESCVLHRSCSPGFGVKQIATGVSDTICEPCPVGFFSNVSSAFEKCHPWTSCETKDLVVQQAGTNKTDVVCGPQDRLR

Question: How did the “apoptosis (cleaved PARP, XIAP) without sCD40L stimulation” value [1] turn out when “CHIR-12.12: fully human anti-CD40 monoclonal antibody of the IgG1 isotype, hybridoma 153.8E2.D10.D6.12.12, ATCC PTA-5543, SEQ ID NO:2 and 4” was run?
Answer: did not trigger these apoptotic effects; also recorded: does not trigger apoptosis in normal human B cells without CD40L stimulation

Question: And the “cytokine production with antibody alone (agonistic activity)” value ([2]; absence of CD40L, 10 μg/ml)?
Answer: did not produce any of the cytokines above background levels

Question: And the “CD40L-induced production of all cytokines” value ([2]; normal B cells (n=3), 10 μg/ml)?
Answer: inhibited production of all cytokines

Question: What about the “% inhibition of CD40L-induced MCP-1 secretion” value ([2]; Donor 1, 10 μg/ml) of the same substance?
Answer: 55.3%

Question: What about the “% inhibition of CD40L-induced MIP-1β secretion” value ([2]; Donor 1, 10 μg/ml) of the same substance?
Answer: 54.4%

Question: And the “% inhibition of CD40L-induced hIL-6 secretion” value ([2]; Donor 1, 10 μg/ml)?
Answer: 92.2%

Question: What about the “% inhibition of CD40L-induced hIL-8 secretion” value ([2]; Donor 1, 10 μg/ml) of the same substance?
Answer: 98.2%

Question: And the “% inhibition of CD40L-induced hIL-10 secretion” value ([2]; Donor 1, 10 μg/ml)?
Answer: 90.5%

Question: What about the “% inhibition of CD40L-induced hTNF-α secretion” value ([2]; Donor 1, 10 μg/ml) of the same substance?
Answer: 92.8%

Question: And the “% inhibition of CD40L-induced MIP-1β secretion” value ([2]; Donor 2, 10 μg/ml)?
Answer: 92%

Question: What about the “% inhibition of CD40L-induced hIL-6 secretion” value ([2]; Donor 2, 10 μg/ml) of the same substance?
Answer: 99.9%

Question: What about the “% inhibition of CD40L-induced hIL-8 secretion” value ([2]; Donor 2, 10 μg/ml) of the same substance?
Answer: 84.7%

Question: What about the “% inhibition of CD40L-induced hTNF-α secretion” value ([2]; Donor 2, 10 μg/ml) of the same substance?
Answer: 97.4%

Question: And the “% inhibition of CD40L-induced MCP-1 secretion” value ([2]; Donor 3, 10 μg/ml)?
Answer: 25.7%

Question: And the “% inhibition of CD40L-induced MIP-1β secretion” value ([2]; Donor 3, 10 μg/ml)?
Answer: 92.5%

Question: And the “% inhibition of CD40L-induced hIL-6 secretion” value ([2]; Donor 3, 10 μg/ml)?
Answer: 99.3%

Question: What about the “% inhibition of CD40L-induced hIL-8 secretion” value ([2]; Donor 3, 10 μg/ml) of the same substance?
Answer: 99.5%

Question: And the “% inhibition of CD40L-induced hIL-10 secretion” value ([2]; Donor 3, 10 μg/ml)?
Answer: 94.4%

Question: And the “% inhibition of CD40L-induced hTNF-α secretion” value ([2]; Donor 3, 10 μg/ml)?
Answer: 98.5%

Question: What about the “CD40L-induced production of hIL-10, hTNF-α, hIL-8, hIL-6, MCP-1 and MIP-1β” value ([3]; monocytes (n=1), 10 μg/ml) of the same substance?
Answer: inhibited CD40L-induced monocyte production

Question: And the “% inhibition of CD40L-induced MCP-1 secretion” value ([3]; monocytes, Donor 1, 10 μg/ml)?
Answer: 92.6%

Question: And the “% inhibition of CD40L-induced MIP-1β secretion” value ([3]; monocytes, Donor 1, 10 μg/ml)?
Answer: 32.4%

Question: What about the “% inhibition of CD40L-induced hIL-6 secretion” value ([3]; monocytes, Donor 1, 10 μg/ml) of the same substance?
Answer: 64.9%

Question: And the “% inhibition of CD40L-induced hIL-8 secretion” value ([3]; monocytes, Donor 1, 10 μg/ml)?
Answer: 43.7%

Question: And the “% inhibition of CD40L-induced hIL-10 secretion” value ([3]; monocytes, Donor 1, 10 μg/ml)?
Answer: 58.5%

Question: What about the “% inhibition of CD40L-induced hTNF-α secretion” value ([3]; monocytes, Donor 1, 10 μg/ml) of the same substance?
Answer: 60.1%

Question: And the “binding to soluble CD40” value [4]?
Answer: bind soluble CD40

Question: What about the “CD40 ligand-mediated proliferation of cancer cells” value [5] of the same substance?
Answer: inhibiting in vitro CD40 ligand-mediated proliferation of cancer cells from NHL and CLL patients

— patent US8333970B2, “Methods of monitoring the efficacy of anti-CD40 antibodies in treating a subject having an inflammatory or autoimmune disease” (Novartis AG, priority 2005, dated 2012)
